For 19 molecules, IC50 results are on record in patent US8304447B2, “2-acylaminopropoanol-type glucosylceramide synthase inhibitors” (Genzyme Corporation, priority 2007, dated 2012).

One test relates to GM3. The test is described as follows: GM3 Elisa assay. The note with it: 48 h, Table 1; B16-FO cells, 2 days incubation; read-out: IC50_uM_Mean. The format is cell-based. The method, then: B16-FO cells from ATCC (American Tissue Culture Collection) were grown in DMEM media (ATCC) with 10% Fetal Bovine Serum (Hyclone) and Pen/Step/Glutamine (Biowhittaker). 4000 cells per well were plated on collagen coated plates (BD) and allowed to attach for 6 hours in an incubator (37 degrees, 5% CO2). After 6 hours the compounds and controls were added to the wells, the plates mixed and returned to the incubator for 2 days. Day of assay the cells were fixed for 20 minutes with 1% formaldehyde and then washed with Tris Buffered Saline (TBS) 3 times, 150 μl of TBS was left in the wells and 50 μl of goat serum (Invitrogen) was added, the plates mixed and incubated for 1 hour at room temperature. The plates were flicked and the cells incubated with the monoclonal Antibody to GM3 (NeuAc) (Cosmo) for 45 minutes as room temperature. The plates were then washed 3 times with TBS, leaving 150 μl of TBS in the wells and Peroxidase AffinPure F (ab′) 2 frag Gt Anti-mouse IgM, μ Chain Specific (Jackson Immuno Research) was added in 50 μl, the plates mixed and incubated for 45 minutes at room temperature. The plates were washed 3 times with TBS, flicked and blotted and 100 μl of Quantablu (Pierce) was added to the wells and incubated for 1 hour then read on a Fluorometer at Ex 325 and Em 420. The data was then analyzed using standard programs.
In the case of `CC(C)CC(=O)c1ccc(OCCC(=O)N[C@H](CN2CCCC2)[C@H](O)c2ccc3c(c2)OCCO3)cc1` [Compound 187, N-((1R,2R)-1-(2,3-dihydrobenzo[β][1,4]dioxin-6-yl)-1-hydroxy-3-(pyrrolidin-1-yl)propan-2-yl)-3-(4-(3-methylbutanoyl)phenoxy)propanamide (2S,3S)-2,3-dihydroxysuccinate], the IC50 was 100 to 1000 nM.

Turning to `O=C(COc1ccc(Cl)cc1)N[C@H](CN1CCCC1)[C@H](O)c1ccc2c(c1)OCCO2` [Compound 83, 2-(4-chlorophenoxy)-N-((1R,2R)-1-(2,3-dihydrobenzo[β][1,4]dioxin-6-yl)-1-hydroxy-3-(pyrrolidin-1-yl)propan-2-yl)acetamide], the IC50 was no more than 100 nM.

For the molecule `O=C(N[C@H](CN1CCCC1)[C@H](O)c1ccc2c(c1)OCCO2)c1cc(-c2cccs2)on1` [Compound 90, N-((1R,2R)-1-(2,3-dihydrobenzo[β][1,4]dioxin-6-yl)-1-hydroxy-3-(pyrrolidin-1-yl)propan-2-yl)-5-(thiophen-2-yl)isoxazole-3-carboxamide], the IC50 lay in the range of 100 to 1000 nM.

Consider `COCCc1ccc(OCCC(=O)N[C@H](CN2CCCC2)[C@H](O)c2ccc3c(c2)OCCO3)cc1` [Compound 202, N-((1R, R)-1-(2,3-dihydrobenzo[β][1,4]dioxin-6-yl)-1-hydroxy-3-(pyrrolidin-1-yl)propan-2-yl)-3-(4-(2-methoxyethyl)phenoxy)propanamide (2R, R)-2,3-dihydroxysuccinate], for which the IC50 is 100 to 1000 nM.

Turning to `CC(C)(C)c1ccc(C(=O)CCCCC(=O)N[C@H](CN2CCCC2)[C@H](O)c2ccc3c(c2)OCCO3)cc1` [Compound 155, 6-(4-tert-butylphenyl)-N-((1R,2R)-1-(2,3-dihydrobenzo[β][1,4]dioxin-6-yl)-1-hydroxy-3-(pyrrolidin-1-yl)propan-2-yl)-6-oxohexanamide], the IC50 was 100 to 1000 nM.

Still in this test, the particulars now being: Table 3 (IC 50 Values); B16-FO cells; read-out: IC50_uM_Mean.
As to `CC(C)Oc1ccc([C@@H](O)[C@@H](CN2CCC(F)C2)NC(=O)CCOc2ccc(Cl)cc2)cc1` (stereo partly shown) [Compound 725], the IC50 fell in the range of 100 to 1000 nM.

Regarding `CCCCCCCC(=O)N[C@H](CN1CCCC1)[C@H](O)c1ccc2c(c1)OC(F)(F)C(F)(F)O2` [Compound 400], the IC50 fell in the range of 3000 to 10000 nM.

Turning to `COc1ccc(C(=O)CCCCCC(=O)N[C@H](CN2CCCC2)C(O)C2CCCCC2)cc1` (stereo partly shown) [Compound 471], the IC50 was in the range of 1000 to 3000 nM.

For the molecule `CCCCOc1ccc([C@@H](O)[C@@H](CN2CCCC2)NC(=O)CCOc2ccc(OC)cc2)cc1` [Compound 412], the IC50 is no more than 100 nM.

Consider `O=C(N[C@H](CO)[C@H](O)c1ccc(C(F)(F)F)cc1)OCc1ccccc1` [Compound 483], for which the IC50 lay in the range of 3000 to 10000 nM.

In the case of `CCCCCCCC(=O)N[C@H](CN1C(C)CCCC1C)[C@H](O)c1ccc2c(c1)OCCO2` (stereo partly shown) [Compound 595], the IC50 fell in the range of 3000 to 10000 nM.

Regarding `COCCCCCCCC(=O)N[C@H](CN1CC[C@H](O)C1)[C@H](O)c1ccc(OCCCCF)cc1` [Compound 499], the IC50 is no more than 100 nM.

With `COCCc1ccc([C@@H](O)[C@@H](CN2CCCC2)NC(=O)CCCCCC(=O)c2ccc(OC)cc2)cc1` [Compound 479], the IC50 was no more than 100 nM.

`COc1ccc(C(=O)CCCCC(=O)N[C@H](CN2CCCC2)[C@H](O)c2ccc3c(c2)OC(F)(F)C(F)(F)O3)cc1` [Compound 403]: the IC50 is 1000 to 3000 nM.

As to `Cc1ccc(OCCC(=O)N[C@H](CN2CC[C@H](O)C2)[C@H](O)c2ccc(OC(C)C)cc2)cc1` [Compound 738], the IC50 is no more than 100 nM.

In the case of `COc1ccc(OCCC(=O)N[C@H](Cn2ccnc2)[C@H](O)c2ccc3c(c2)OCCO3)cc1` [Compound 508], the IC50 is 3000 to 10000 nM.

For the molecule `COc1ccc(OCCC(=O)N[C@H](CN2CCCC2)[C@H](O)c2ccc(C)c(F)c2)cc1` [Compound 349], the IC50 lay within 100 to 1000 nM.

Regarding `O=C(CC(F)(F)F)N[C@H](CN1CCCC1)[C@H](O)c1ccc2c(c1)OCCO2` [Compound 624], the IC50 lay in the range of 3000 to 10000 nM.

As to `CCCCCCOc1ccc([C@@H](O)[C@@H](CN2CC[C@@H](F)C2)NC(=O)CCOc2ccc(Cl)cc2)cc1` [Compound 731], the IC50 was no more than 100 nM.
